{"source": "PubChem BioAssay AID1259409", "about": "(Chemical Carcinogenesis Research Information System (CCRIS), 2018)", "origin": "cited, not measured here", "system": "rodent chemically induced tumor inhibition, incidence and multiplicity", "test": "CCRIS tumor inhibitor studies", "conditions": "Route [Inhibitor]: ORAL", "data": [{"smiles": "O=C1O[C@H]([C@@H](O)CO)C(O)=C1O", "values": [{"measurement": "tumour outcome (control, treated, inhibition, significance)", "setting": "Carcinogen: 1,2-DIMETHYLHYDRAZINE, 540-73-8, Dose [Inhibitor]: 0.3% IN DRINKING WATER BEGINNING POST LAST CARCINOGEN DOSE AND CONTINUING FOR DURATION OF STUDY (STUDY DURATION: 55 WK), Species: MOUSE, Strain/Sex: CBA/FEMALE, Target Tissue: Type of Lesion: UTERUS (ENDOMETRIUM): STROMAL SARCOMA, Dose [Carcinogen]: 8 MG/KG BW IN WATER 1/WK FOR 8 WK, Promoter: ESTRADIOL PROPIONATE, 113-38-2", "result": "13/40 (33%), 3/40 (8%), 77%, not calculated"}, {"measurement": "tumour outcome (control, treated, inhibition, significance)", "setting": "Carcinogen: 1,2-DIMETHYLHYDRAZINE, 540-73-8, Dose [Inhibitor]: 1% IN 20% FAT DIET DAILY STARTING 2 WK BEFORE CARCINOGEN TREATMENT AND CONTINUING FOR DURATION OF STUDY (STUDY DURATION:, Species: RAT, Strain/Sex: F344/FEMALE, Target Tissue: Type of Lesion: COLON: ADENOMA, ADENOCARCINOMA, Dose [Carcinogen]: 150 MG/KG BW IN 0.9% SALINE ADJUSTED TO PH 6.8 ONCE, Promoter: NONE USED", "result": "26%, 0%, 100%, p<0.05"}, {"measurement": "tumour outcome (control, treated, inhibition, significance)", "setting": "Carcinogen: 1,2-DIMETHYLHYDRAZINE, 540-73-8, Dose [Inhibitor]: 1% IN 20% FAT DIET DAILY STARTING 2 WK BEFORE CARCINOGEN TREATMENT AND CONTINUING FOR DURATION OF STUDY (STUDY DURATION:, Species: RAT, Strain/Sex: F344/FEMALE, Target Tissue: Type of Lesion: KIDNEY: NEPHROBLASTOMA, ADENOCARCINOMA, Dose [Carcinogen]: 150 MG/KG BW IN 0.9% SALINE ADJUSTED TO PH 6.8 ONCE, Promoter: NONE USED", "result": "22%, 0%, 100%, p<0.05"}, {"measurement": "tumour outcome (control, treated, inhibition, significance)", "setting": "Carcinogen: 1,2-DIMETHYLHYDRAZINE, 540-73-8, Dose [Inhibitor]: 1% IN 20% FAT DIET DAILY STARTING 2 WK BEFORE START OF CARCINOGEN TREATMENT AND CONTINUING FOR DURATION OF STUDY (STUDY, Species: RAT, Strain/Sex: F344/FEMALE, Target Tissue: Type of Lesion: COLON: ADENOCARCINOMA, Dose [Carcinogen]: 20 MG/KG BW IN 0.9% SALINE 1/WK FOR 10 WK, Promoter: NONE USED", "result": "33%, 39%, -18%, not significant"}, {"measurement": "tumour outcome (control, treated, inhibition, significance)", "setting": "Carcinogen: 1,2-DIMETHYLHYDRAZINE, 540-73-8, Dose [Inhibitor]: 1% IN 20% FAT DIET DAILY STARTING 2 WK BEFORE START OF CARCINOGEN TREATMENT AND CONTINUING FOR DURATION OF STUDY (STUDY, Species: RAT, Strain/Sex: F344/FEMALE, Target Tissue: Type of Lesion: COLON: ADENOMA, Dose [Carcinogen]: 20 MG/KG BW IN 0.9% SALINE 1/WK FOR 10 WK, Promoter: NONE USED", "result": "42%, 39%, 7%, not significant"}, {"measurement": "tumour outcome (control, treated, inhibition, significance)", "setting": "Carcinogen: 1,2-DIMETHYLHYDRAZINE, 540-73-8, Dose [Inhibitor]: 1% IN 20% FAT DIET DAILY STARTING 2 WK BEFORE START OF CARCINOGEN TREATMENT AND CONTINUING FOR DURATION OF STUDY (STUDY, Species: RAT, Strain/Sex: F344/FEMALE, Target Tissue: Type of Lesion: DUODENUM: ADENOCARCINOMA, ADENOMA, Dose [Carcinogen]: 20 MG/KG BW IN 0.9% SALINE 1/WK FOR 10 WK, Promoter: NONE USED", "result": "25%, 26%, -4%, not significant"}, {"measurement": "tumour outcome (control, treated, inhibition, significance)", "setting": "Carcinogen: 1,2-DIMETHYLHYDRAZINE, 540-73-8, Dose [Inhibitor]: 1% IN 20% FAT DIET DAILY STARTING 2 WK BEFORE START OF CARCINOGEN TREATMENT AND CONTINUING FOR DURATION OF STUDY (STUDY, Species: RAT, Strain/Sex: F344/FEMALE, Target Tissue: Type of Lesion: EAR DUCT: SQUAMOUS CELL CARCINOMA, Dose [Carcinogen]: 20 MG/KG BW IN 0.9% SALINE 1/WK FOR 10 WK, Promoter: NONE USED", "result": "13%, 13%, 0%, not significant"}, {"measurement": "tumour outcome (control, treated, inhibition, significance)", "setting": "Carcinogen: 1,2-DIMETHYLHYDRAZINE, 540-73-8, Dose [Inhibitor]: 1% IN 20% FAT DIET DAILY STARTING 2 WK BEFORE START OF CARCINOGEN TREATMENT AND CONTINUING FOR DURATION OF STUDY (STUDY, Species: RAT, Strain/Sex: F344/FEMALE, Target Tissue: Type of Lesion: KIDNEY: NEPHROBLASTOMA, ADENOCARCINOMA, Dose [Carcinogen]: 20 MG/KG BW IN 0.9% SALINE 1/WK FOR 10 WK, Promoter: NONE USED", "result": "13%, 18%, -38%, not significant"}, {"measurement": "tumour outcome (control, treated, inhibition, significance)", "setting": "Carcinogen: 1,2-DIMETHYLHYDRAZINE, 540-73-8, Dose [Inhibitor]: 1.2% IN DIET DAILY STARTING 2 WK PRIOR TO CARCINOGEN TREATMENT AND CONTINUING FOR DURATION OF STUDY (STUDY DURATION: 28, Species: RAT, Strain/Sex: SPRAGUE-DAWLEY/MALE, Target Tissue: Type of Lesion: COLON: ADENOCARCINOMA, Dose [Carcinogen]: 20 MG/KG BW IN BACTERIOSTATIC SALINE 1/WK FOR 20 WK, Promoter: NONE USED", "result": "64%, 38%, 41%, not calculated"}, {"measurement": "tumour outcome (control, treated, inhibition, significance)", "setting": "Carcinogen: 3-METHYLCHOLANTHRENE, 56-49-5, Dose [Inhibitor]: 0, 1.25% IN DRINKING WATER FOR DURATION OF STUDY BEGINNING 15 D PRIOR TO CARCINOGEN TREATMENT (STUDY DURATION: 150 D), Species: MOUSE, Strain/Sex: LACA/MALE, Target Tissue: Type of Lesion: GLANDULAR STOMACH: TUMOR, Dose [Carcinogen]: 2.2 MG (AVERAGE DOSE) ON COTTON THREADS IMPLANTED IN GLANDULAR STOMACH, Promoter: NONE USED", "result": "66%, 28%, 58%, p<0.02"}, {"measurement": "tumour outcome (control, treated, inhibition, significance)", "setting": "Carcinogen: 3-METHYLCHOLANTHRENE, 56-49-5, Dose [Inhibitor]: 0, 2 MG/ML IN DRINKING WATER FOR 6 WK BEGINNING ON FIRST DAY OF CARCINOGEN TREATMENT (STUDY DURATION: 16 WK), Species: MOUSE, Strain/Sex: SWISS/FEMALE, Target Tissue: Type of Lesion: CERVIX: SQUAMOUS CELL CARCINOMA, Dose [Carcinogen]: 600 UG IN BEESWAX IMPREGNATED COTTON THREAD FOR DURATION OF STUDY, Promoter: NONE USED", "result": "16/21 (76%), 5/15 (33%), 57%, p<0.02"}, {"measurement": "tumour outcome (control, treated, inhibition, significance)", "setting": "Carcinogen: 3-METHYLCHOLANTHRENE, 56-49-5, Dose [Inhibitor]: 0, 2 MG/ML IN DRINKING WATER FOR 10 WK BEGINNING 6 WK AFTER FIRST DAY OF CARCINOGEN TREATMENT (STUDY DURATION: 16 WK), Species: MOUSE, Strain/Sex: SWISS/FEMALE, Target Tissue: Type of Lesion: CERVIX: SQUAMOUS CELL CARCINOMA, Dose [Carcinogen]: 600 UG IN BEESWAX IMPREGNATED COTTON THREAD FOR DURATION OF STUDY, Promoter: NONE USED", "result": "16/21 (76%), 8/12 (67%), 12%, not significant"}, {"measurement": "tumour outcome (control, treated, inhibition, significance)", "setting": "Carcinogen: 3-METHYLCHOLANTHRENE, 56-49-5, Dose [Inhibitor]: 0, 2 MG/ML IN DRINKING WATER FOR 16 WK (STUDY DURATION: 16 WK), Species: MOUSE, Strain/Sex: SWISS/FEMALE, Target Tissue: Type of Lesion: CERVIX: SQUAMOUS CELL CARCINOMA, Dose [Carcinogen]: 600 UG IN BEESWAX IMPREGNATED COTTON THREAD FOR DURATION OF STUDY, Promoter: NONE USED", "result": "16/21 (76%), 5/15 (33%), 57%, p<0.02"}, {"measurement": "tumour outcome (control, treated, inhibition, significance)", "setting": "Carcinogen: 7,12-DIMETHYLBENZ[A]ANTHRACENE, 57-97-6, Dose [Inhibitor]: 0, 30 MG/ML IN DRINKING WATER FROM 40-90 D OF AGE THEN 0, 20 MG/ML FROM 90-180 D OF AGE AND 0, 10 MG/ML FROM 180-240 D O, Dose [Inhibitor]: 0, 30 MG/ML IN DRINKING WATER FROM 40-90 D OF AGE THEN 0, 20 MG/ML FROM 90-180 D OF AGE AND 0, 10 MG/ML FROM 180-240 D O, Species: RAT, Strain/Sex: SPRAGUE-DAWLEY/FEMALE, Target Tissue: Type of Lesion: MAMMARY GLAND: ADENOCARCINOMA, FIBROADENOMA, Dose [Carcinogen]: 5 MG IN 0.2 ML SESAME OIL 1/2 D FOR 12 D BEGINNING AT 50 D OF AGE, Promoter: NONE USED", "result": "100%, 57%, 43%, p<0.001"}]}]}
